52 compounds from PubChem BioAssay AID1996 can be followed below.

Structures are written as SMILES. Converted amounts (≈) assume the structure as drawn. Bounds are passed on as bounds.

A word on the kinetic solubility: it is solubility judged after dilution from a stock solution rather than from solid.

The conditions of the data set: buffer; pH 7.4; 200.0 µM.
The compound `Cc1ccnc(NC(=O)CCS(=O)(=O)c2ccccc2)c1` yielded a kinetic solubility of more than 45.7 µg/mL.

`O=C(NCCO)N1c2ccccc2Sc2ccccc21` gave a kinetic solubility of more than 43 µg/mL.

The compound `CCCN1C(=O)c2ccc(C(=O)Nc3ccccc3C(=O)O)cc2C1=O` displayed a kinetic solubility of more than 52.9 µg/mL.

`CC1Cc2ccccc2N1C(=O)c1ccc(F)c(S(=O)(=O)N2CCOCC2)c1` (configuration not stated): the kinetic solubility stood at 50.3 µg/mL (≈ 124 µM).

Regarding `COC(=O)c1ccc(N2CCN(C)CC2)c(NC(=O)c2cccs2)c1`, the kinetic solubility is more than 53.9 µg/mL.

Consider `O=c1[nH]c(=S)[nH]cc1S(=O)(=O)c1cccc(Cl)c1`, for which the kinetic solubility was more than 45.4 µg/mL.

The compound `CC(=O)Nc1cc(NC(C)=O)cc(-c2nc3ccccc3[nH]2)c1` showed a solubility (kinetic) of more than 46.3 µg/mL.

In turn, `Cc1ccc(C(C)NC(=O)Cc2cccs2)c(C)c1` (configuration not stated) showed a kinetic solubility of 34.4 µg/mL (≈ 126 µM).

Compound `COc1ccc(CNC(=O)N2CCc3ccccc3C2)cc1Cl` registered a solubility (kinetic) of 30.4 µg/mL (≈ 91.9 µM).

Compound `O=S(=O)(NC1=NCCCCC1)c1ccc(Cl)cc1` yielded a kinetic solubility of more than 43 µg/mL.

The compound `O=S(=O)(Nc1nc2ccccc2nc1NCC1CCCO1)c1ccccc1` (configuration not stated) gave a solubility (kinetic) of more than 57.7 µg/mL.

In turn, `CCCCC(CC)C(=O)Nc1ncc([N+](=O)[O-])s1` (configuration not stated) displayed a kinetic solubility of more than 40.7 µg/mL.

In the case of `COCCNC(=O)NC(=O)CSc1nc(C)c(C)c(C)n1`, the solubility (kinetic) was more than 46.9 µg/mL.

As for `COc1ccccc1NC(=O)Cn1nc(C)n2cccc2c1=O`, the solubility (kinetic) is more than 46.8 µg/mL.

The compound `Clc1nccc(N2CCN(c3ccccc3Cl)CC2)n1` returned a kinetic solubility of 13.3 µg/mL (≈ 43 µM).

Compound `COc1ccccc1CNC(=O)COC(=O)c1nccnc1N` had a kinetic solubility of 39.7 µg/mL (≈ 126 µM).

On to `O=C(N/C=C/n1cnc2cc(C(F)(F)F)ccc21)c1ccccc1F`, for which the solubility (kinetic) is 4.9 µg/mL (≈ 14 µM).

With `C=CCOc1ccc(/C=C2\SC(N)=NC2=O)cc1OC`, the kinetic solubility was 5.7 µg/mL (≈ 19.6 µM).

Take `OC1(c2ccc3c(c2)OCO3)CCN(Cc2ccc(F)cc2)CC1`: the kinetic solubility was more than 49.4 µg/mL.

Turning to `NCc1oc(-c2ccccc2)cc1C(=O)O`, the solubility (kinetic) is 22.2 µg/mL (≈ 102 µM).

On to `Cc1ccc(CNC(=O)CNC(=O)c2ccco2)cc1`, for which the kinetic solubility was more than 40.8 µg/mL.

`CCC(=O)Nc1cc(C(=O)O)ccc1Sc1ccc(Cl)cc1` gave a solubility (kinetic) of more than 50.4 µg/mL.

The compound `CC1CC=C(c2ccccc2)C(=S)N1` (configuration not stated) yielded a kinetic solubility of more than 30.5 µg/mL.

Take `N#Cc1c(-c2cccs2)cc(-c2cccs2)[nH]c1=O`: the solubility (kinetic) is 0.7 µg/mL (≈ 2.46 µM).

The compound `Cn1cccc1C(C#N)(CC#N)c1cccc(F)c1C#N` (configuration not stated) displayed a kinetic solubility of 40.4 µg/mL (≈ 145 µM).

`CCc1cccc(CC)c1NC(=S)Nc1cccc(Cl)c1Cl` had a solubility (kinetic) of 1.4 µg/mL (≈ 3.96 µM).

In turn, `COCCCNC(=O)[C@H]1N2C(=O)c3ccccc3C2SC1(C)C` (some centres not stated) yielded a kinetic solubility of 45.4 µg/mL (≈ 136 µM).

As to `Cc1cc(Cl)ccc1NC(=O)c1ccc2c(c1)OCO2`, the kinetic solubility worked out at 2.5 µg/mL (≈ 8.63 µM).

For the compound `CNc1oc(-c2cccs2)nc1S(=O)(=O)c1ccccc1`, the kinetic solubility was 4.2 µg/mL (≈ 13.1 µM).

For `CC1CCN(C(=O)COC(=O)CCC(=O)c2ccc(Cl)cc2)CC1`, the solubility (kinetic) is 49.8 µg/mL (≈ 142 µM).

The compound `Cc1ccc(S(=O)(=O)Oc2ccccc2/C=C2/SC(=O)NC2=O)cc1` showed a kinetic solubility of 52.7 µg/mL (≈ 140 µM).

Consider `Cc1ccc(S(=O)(=O)N2CCCCC2)cc1NC(=O)c1ccccc1Cl`, for which the solubility (kinetic) came out at 23.2 µg/mL (≈ 59 µM).

Regarding `O=C(COC(=O)c1cccnc1Cl)NCCc1ccccc1`, the kinetic solubility was more than 47.8 µg/mL.

Regarding `Cc1ccc2oc(=O)n(CCOc3ccccc3)c2c1`, the solubility (kinetic) amounted to 14.2 µg/mL (≈ 52.7 µM).

With `CCN(C(=S)Nc1cccnc1)c1ccccc1`, the kinetic solubility was found to be 36.3 µg/mL (≈ 141 µM).

As for `COc1ccc(Cn2c(C(F)(F)F)ccc(C(N)=O)c2=O)cc1`, the kinetic solubility was 8.2 µg/mL (≈ 25.1 µM).

The compound `O=C(Oc1ccccc1)c1cccnc1Oc1ccccc1` gave a solubility (kinetic) of 20.7 µg/mL (≈ 71.1 µM).

`Cc1cc(NC(=O)c2cc(-c3cccc(OCC(C)C)c3)nc3ccccc23)no1` yielded a kinetic solubility of less than 0.3 µg/mL.

For `CCOP(=O)(c1ccc(N(C)C)cc1)C(O)c1ccc(OC)cc1` (configuration not stated), the kinetic solubility worked out at 48.8 µg/mL (≈ 140 µM).

Compound `CCCc1c(O)nc(SCC(=O)NCc2ccco2)[nH]c1=O` displayed a solubility (kinetic) of more than 48.5 µg/mL.

As to `O=C1CCC([N+](=O)[O-])C(c2cc(Br)ccc2F)N1` (configuration not stated), the solubility (kinetic) was found to be 46.4 µg/mL (≈ 146 µM).

Consider `O=c1[nH]c2cc3ccccc3cc2nc1C(F)(F)F`, for which the kinetic solubility came to 2.9 µg/mL (≈ 11 µM).

Take `COCCN(C(=O)c1ccccc1OC)c1nnc(C)s1`: the kinetic solubility was more than 46.1 µg/mL.

Compound `CCCn1c(C(=O)c2ccccc2)nc2ccccc21` showed a solubility (kinetic) of 9.7 µg/mL (≈ 36.7 µM).

With `COc1cccc(CNCCc2c[nH]c3ccccc23)c1`, the solubility (kinetic) is 35.8 µg/mL (≈ 128 µM).

Compound `CC(=O)c1sc2nsc(SCCN3CCCCC3)c2c1N` showed a solubility (kinetic) of 47.5 µg/mL (≈ 139 µM).

As to `O=C(CN1C(=O)NC2(CCCc3ccccc32)C1=O)c1ccc(F)c(F)c1` (configuration not stated), the kinetic solubility worked out at 17.3 µg/mL (≈ 46.7 µM).

Compound `Cc1ccc(N(CC(=O)N2CCN(Cc3ccccc3)CC2)S(C)(=O)=O)cc1C` displayed a kinetic solubility of 50.9 µg/mL (≈ 122 µM).

The compound `COc1cccc(N2CCN(C(=O)c3cc(C)oc3C)CC2)c1` showed a kinetic solubility of more than 47.2 µg/mL.

For the compound `Cl.OCCNCCNCc1ccccc1OCc1ccccc1`, the solubility (kinetic) was more than 50.5 µg/mL.

Take `O=S(=O)([N-]c1nc2ccccc2nc1-[n+]1ccccc1)c1ccc(F)cc1`: the solubility (kinetic) is 50.3 µg/mL (≈ 132 µM).

In turn, `CCOc1ccc(C(=O)CCC(=O)N2CCN(c3ccc(O)cc3)CC2)cc1` came in with a kinetic solubility of 16.6 µg/mL (≈ 43.4 µM).
